# From patent publication US10800792B2, “Inhibitors of Bruton's tyrosine kinase and method of their use” (JANSSEN PHARMACEUTICA NV, priority 2015, dated 2020)
# Molecular target: unphosphorylated-BTK kinase domain (UP-BTK), GST-tagged human BTK (389-659aa) (Homo sapiens (Human), UniProt Q06187)
# Test: BTK kinase Lanthascreen binding assay
# Details: Lanthascreen tracer competition, 60 minutes incubation; pIC50 = negative log of the IC50 in molar
# In short: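 A fluorescent tracer is bound to unphosphorylated BTK; test compound is added to compete it off; the Lanthascreen signal is read and IC50 is fitted, then reported as its negative log in molar.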
# unphosphorylated-BTK kinase domain (UP-BTK), GST-tagged human BTK (389-659aa), sequence (Q06187 389-659): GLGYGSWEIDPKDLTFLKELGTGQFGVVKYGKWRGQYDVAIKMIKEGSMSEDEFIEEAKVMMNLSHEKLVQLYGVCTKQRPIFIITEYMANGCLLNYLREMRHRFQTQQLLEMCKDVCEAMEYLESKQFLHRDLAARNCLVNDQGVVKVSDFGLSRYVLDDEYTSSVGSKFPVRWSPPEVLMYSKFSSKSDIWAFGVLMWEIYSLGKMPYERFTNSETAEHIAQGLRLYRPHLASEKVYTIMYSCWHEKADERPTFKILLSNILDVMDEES
row,Structure (SMILES),BTK_I_binding pIC50
1,"COCCC(=O)N1CCC[C@@H](NC(=O)c2sc3nccc4c3c2NC(=O)N4c2ccc(Oc3ccccc3)cc2C)C1 [Example 841, (R)—N-(1-(3-Methoxypropanoyl)piperidin-3-yl)-5-(2-methyl-4-phenoxyphenyl)-4-oxo-4,5-dihydro-3H-1-thia-3,5,8-triazaacenaphthylene-2-carboxamide]",7.7
2,"Cc1cc(OCC(C)C)ncc1N1C(=O)Nc2c(C(=O)N[C@@H]3CCNC3)sc3nccc1c23 (single isomer, unassigned) [Example 798, (R)-5-(*S)-(6-Isobutoxy-4-methylpyridin-3-yl)-4-oxo-N-(pyrrolidin-3-yl)-4,5-dihydro-3H-1-thia-3,5,8-triazaacenaphthylene-2-carboxamide]",6.3
3,"CCC(=O)N1CCC[C@@H](NC(=O)c2sc3nccc4c3c2NC(=O)N4c2ccc(Oc3ccccn3)cc2)C1 [Example 807, (R)-4-Oxo-N-(1-propionylpiperidin-3-yl)-5-(4-(pyridin-2-yloxy)phenyl)-4,5-dihydro-3H-1-thia-3,5,8-triazaacenaphthylene-2-carboxamide]",<6
4,"C=CC(=O)N1CCC[C@@H](NC(=O)c2sc3nccc4c3c2NC(=O)N4c2ccc(Oc3cccnn3)cc2C)C1 [Example 784, (R)—N-(1-Acryloylpiperidin-3-yl)-5-(2-methyl-4-(pyridazin-3-yloxy)phenyl)-4-oxo-4,5-dihydro-3H-1-thia-3,5,8-triazaacenaphthylene-2-carboxamide]",7.4
5,"Cc1cc(Oc2ccccc2)ccc1N1C(=O)Nc2c(C(=O)NC3CCCN(C(=O)CC#N)C3)sc3nccc1c23 (centres unmarked) [Example 882, N-(1-(2-Cyanoacetyl)piperidin-3-yl)-5-(2-methyl-4-phenoxyphenyl)-4-oxo-4,5-dihydro-3H-1-thia-3,5,8-triazaacenaphthylene-2-carboxamide]",7.0

# Same assay, conditions: pIC50 = negative log of the IC50 in molar; 60 minutes incubation, 50 nM Tracer 236
row,Structure (SMILES),BTK_I_binding pIC50
1,"C=CC(=O)N1CCC[C@@H](NC(=O)c2sc3nccc4c3c2NC(=O)N4c2ccccc2)C1 [Example 257, (R)—N-(1-Acryloylpiperidin-3-yl)-4-oxo-5-phenyl-4,5-dihydro-3H-1-thia-3,5,8-triazaacenaphthylene-2-carboxamide]",6.4
2,"Cc1cc(Oc2ccccc2)ccc1N1C(=O)Nc2c(C(=O)NC3CCC(C)N(C)C3)sc3nccc1c23 (centres unmarked) [Example 103, N-(1,6-Dimethylpiperidin-3-yl)-5-(2-methyl-4-phenoxyphenyl)-4-oxo-4,5-dihydro-3H-1-thia-3,5,8-triazaacenaphthylene-2-carboxamide]",6.7

# Same assay, conditions: unphosphorylated-BTK kinase domain, 50 nM Tracer 236, 60 minutes; pIC50 = negative log of the IC50 in molar
row,Structure (SMILES),BTK_I_binding pIC50
1,"CNCC(=O)N1CCC[C@@H](NC(=O)c2sc3nccc4c3c2NC(=O)N4c2ccc(Oc3ccccc3)c(Cl)c2)C1 [Example 575, (R)-5-(3-Chloro-4-phenoxyphenyl)-N-(1-(2-(methylamino)acetyl)piperidin-3-yl)-4-oxo-4,5-dihydro-3H-1-thia-3,5,8-triazaacenaphthylene-2-carboxamide]",7.3
2,"Cc1ncccc1N1C(=O)Nc2c(C(=O)N[C@@H]3CCCNC3)sc3nccc1c23 [Example 359, (R)-5-(2-Methylpyridin-3-yl)-4-oxo-N-(piperidin-3-yl)-4,5-dihydro-3H-1-thia-3,5,8-triazaacenaphthylene-2-carboxamide]",<5
3,"C/C=C/C(=O)N1CCC[C@@H](NC(=O)c2sc3nccc4c3c2NC(=O)N4c2ccc(Oc3ccccc3)cc2C)C1 (single isomer, unassigned) [Example 474, (R,*E)-N-(1-(But-2-enoyl)piperidin-3-yl)-5-(*R)-(2-methyl-4-phenoxyphenyl)-4-oxo-4,5-dihydro-3H-1-thia-3,5,8-triazaacenaphthylene-2-carboxamide]",7.6
4,"C/C(=C\C1CC1)C(=O)N1CCC[C@@H](NC(=O)c2sc3nccc4c3c2NC(=O)N4c2ccc(Oc3ccccc3)cc2C)C1 [Example 401, (R,E)-N-(1-(3-Cyclopropyl-2-methylacryloyl)piperidin-3-yl)-5-(2-methyl-4-phenoxyphenyl)-4-oxo-4,5-dihydro-3H-1-thia-3,5,8-triazaacenaphthylene-2-carboxamide]",6.5
